Legend:
[1] = degree of cleaning fabrics: Lab differences, whiteness and yellowness index of soil test cloth
Description: In the tests of the degree of cleaning fabrics in Examples 1 to 9, four kinds of standard soil test cloths are taken, the types of the cloth are respectively polyester, cotton, wool, polyester/cotton. The conditions of the tests of degree of cleaning fabrics are similar to those of the above dry-cleaning tests. After the soil test cloths have been dry cleaned, the reflectance, the whiteness index and the yellowness index thereof are measured by means of a color matching system to identify the degree of cleaning fabrics of the dry-cleaning solvents.
After the soil test cloths of polyester/cotton, wool, cotton and polyester are respectively dry-cleaned with the dry-cleaning solvents, the degrees of cleaning the soil test cloths of the dry-cleaning solvents is measured. The dry-cleaning procedure is carried out under the conditions that temperature is 25±2° C., liquid ratio is 1:40 and dry cleaning time is 30 minutes in a shaking manner and then the soil test cloths which have been dry-cleaned are dried under the temperature of 60±2° C.
Color differences can be analyzed according to Munsell Color Solid Theory and a bright and a chroma of a hue can be decided by means of a solid rectangular coordinate.
According to an opponent-color coordinate recommended by the CIE (Commission International de I'Eclairage) Society in 1976, wherein a redness-greenness coordinate is set to be the “a” coordinate with redness as a positive value and greenness as a negative together with a yellowness-blueness coordinate forms the “b” coordinate wherein yellowness indicates a positive value and blueness indicates a negative value, the two sets of coordinates form a two dimensional coordinate further with a third coordinate which indicates the bright to form the opponent-color coordinate designed by the CIE Lab, a bright value “L” in the third coordinate, a chroma value “a” in the redness-greenness coordinate and a chroma value “b” in the yellowness-blueness coordinate are related to red, blue, green tristimulus values as shown in the following:
ΔE=((ΔL)^2+(Δa)^2+(Δb)^2)^½
In FIG. 1, Δc indicates the chroma difference between a chroma value of a specimen sample and a chroma value of a standard sample, and Δh indicates the hue angle difference. By means of the analysis of chroma difference and hue angle difference, the two values Δc and Δh, can be easily obtained.

[2] = physical properties of the solvent; conditions: Table 1
[3] = soil test cloth of cotton, dry cleaned five times
[4] = soil test cloth of cotton, dry cleaned one time
[5] = soil test cloth of cotton, dry cleaned two times
[6] = soil test cloth of polyester/cotton, dry cleaned five times
[7] = soil test cloth of polyester/cotton, dry cleaned one time
[8] = soil test cloth of polyester/cotton, dry cleaned two times
[9] = soil test cloth of polyester, dry cleaned five times
[10] = soil test cloth of polyester, dry cleaned one time
[11] = soil test cloth of polyester, dry cleaned two times
[12] = soil test cloth of wool, dry cleaned five times
[13] = soil test cloth of wool, dry cleaned one time
[14] = soil test cloth of wool, dry cleaned two times

For ClC(Cl)=C(Cl)Cl [perchloroethylene], the ΔE [1, 3] was 2.88, the ΔL [1, 3] was 2.8 and the Δa [1, 3] was −0.02. The Δb [1, 3] was −0.68, the Δc [1, 3] was −0.66 and the Δh [1, 3] was 0.16. For the same compound, the yellowness index ([1]; soil test cloth of cotton, dry cleaned five times, before dry cleaned 3.85) was 2.18, the whiteness index ([1]; soil test cloth of cotton, dry cleaned five times, before dry cleaned 39.47) was 45.97 and the ΔE [1, 4] was 4.27. It also gave a ΔL [1, 4] of 4.22, a Δa [1, 4] of −0.02 and a Δb [1, 4] of −0.61. The Δc [1, 4] was −0.6, the Δh [1, 4] was 0.14 and the yellowness index ([1]; soil test cloth of cotton, dry cleaned one time, before dry cleaned 3.85) was 2.31. The whiteness index ([1]; soil test cloth of cotton, dry cleaned one time, before dry cleaned 39.47) was 47.96, the ΔE [1, 5] was 4.09 and the ΔL [1, 5] was 4.04. It also gave a Δa [1, 5] of −0.04, a Δb [1, 5] of −0.64 and a Δc [1, 5] of −0.62. For the same compound, the Δh [1, 5] was 0.18, the yellowness index ([1]; soil test cloth of cotton, dry cleaned two times, before dry cleaned 3.85) was 2.23 and the whiteness index ([1]; soil test cloth of cotton, dry cleaned two times, before dry cleaned 39.47) was 47.78. The ΔE [1, 6] was 2.83, the ΔL [1, 6] was 2.8 and the Δa [1, 6] was −0.06. It also gave a Δb [1, 6] of −0.4, a Δc [1, 6] of −0.39 and a Δh [1, 6] of 0.13. The yellowness index ([1]; soil test cloth of polyester/cotton, dry cleaned five times, before dry cleaned 3.41) was 2.33, the whiteness index ([1]; soil test cloth of polyester/cotton, dry cleaned five times, before dry cleaned 37.82) was 43.16 and the ΔE [1, 7] was 3.29. The ΔL [1, 7] was 3.26, the Δa [1, 7] was −0.04 and the Δb [1, 7] was −0.41. It also gave a Δc [1, 7] of −0.4, a Δh [1, 7] of 0.11 and a yellowness index ([1]; soil test cloth of polyester/cotton, dry cleaned one time, before dry cleaned 3.41) of 2.32. For the same compound, the whiteness index ([1]; soil test cloth of polyester/cotton, dry cleaned one time, before dry cleaned 37.82) was 43.87, the ΔE [1, 8] was 3.96 and the ΔL [1, 8] was 3.94. It also gave a Δa [1, 8] of −0.07, a Δb [1, 8] of −0.43 and a Δc [1, 8] of −0.41. For the same compound, the Δh [1, 8] was 0.15, the yellowness index ([1]; soil test cloth of polyester/cotton, dry cleaned two times, before dry cleaned 3.41) was 2.23 and the whiteness index ([1]; soil test cloth of polyester/cotton, dry cleaned two times, before dry cleaned 37.82) was 44.96. It also gave a ΔE [1, 9] of 5.67, a ΔL [1, 9] of 5.26 and a Δa [1, 9] of −0.14. It also gave a Δb [1, 9] of −0.14, a Δc [1, 9] of 0.15 and a Δh [1, 9] of −0.13. It also gave a whiteness index ([1]; soil test cloth of polyester, dry cleaned five times, before dry cleaned 45.11) of 55.02, a yellowness index ([1]; soil test cloth of polyester, dry cleaned five times, before dry cleaned −10.35) of −10.21 and a ΔE [1, 10] of 6.68. It also gave a ΔL [1, 10] of 6.68, a Δa [1, 10] of −0.19 and a Δb [1, 10] of 0.07. It also gave a Δc [1, 10] of −0.06, a Δh [1, 10] of −0.19 and a whiteness index ([1]; soil test cloth of polyester, dry cleaned one time, before dry cleaned 45.11) of 56.16. The yellowness index ([1]; soil test cloth of polyester, dry cleaned one time, before dry cleaned −10.35) was −9.61, the ΔE [1, 11] was 7.61 and the ΔL [1, 11] was 7.6. For the same compound, the Δa [1, 11] was −0.17, the Δb [1, 11] was −0.2 and the Δc [1, 11] was 0.21. The Δh [1, 11] was −0.16, the whiteness index ([1]; soil test cloth of polyester, dry cleaned two times, before dry cleaned 45.11) was 58.86 and the yellowness index ([1]; soil test cloth of polyester, dry cleaned two times, before dry cleaned −10.35) was −10.22. The ΔE [1, 12] was 1.9, the ΔL [1, 12] was −1.66 and the Δa [1, 12] was −0.1. It also gave a Δb [1, 12] of −0.93, a Δc [1, 12] of −0.9 and a Δh [1, 12] of 0.27. It also gave a yellowness index ([1]; soil test cloth of wool, dry cleaned five times, before dry cleaned 11.22) of 9, a whiteness index ([1]; soil test cloth of wool, dry cleaned five times, before dry cleaned 22.57) of 23.54 and a ΔE [1, 13] of 2.1. The ΔL [1, 13] was −2.1, the Δa [1, 13] was −0.04 and the Δb [1, 13] was −0.03. It also gave a Δc [1, 13] of −0.03, a Δh [1, 13] of 0.05 and a yellowness index ([1]; soil test cloth of wool, dry cleaned one time, before dry cleaned 11.22) of 11.37. The whiteness index ([1]; soil test cloth of wool, dry cleaned one time, before dry cleaned 22.57) was 20.62, the ΔE [1, 14] was 2.09 and the ΔL [1, 14] was −1.91. The Δa [1, 14] was −0.09, the Δb [1, 14] was −0.83 and the Δc [1, 14] was −0.8. The Δh [1, 14] was 0.23, the yellowness index ([1]; soil test cloth of wool, dry cleaned two times, before dry cleaned 11.22) was 9.3 and the whiteness index ([1]; soil test cloth of wool, dry cleaned two times, before dry cleaned 22.57) was 22.99. For the same compound, the “increase of whiteness index” value ([1]; soil test cloth of wool, times not stated) was “does not change appreciably”, the Boiling point [2] was 121 °C and the Solubility [2] was “Insoluble in water,”. For the same compound, the Specific gravity [2] was 1.625 and the Dangerousness (dangerousness (Table 1)) was “medium toxicity”.
